#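 48-hour exposure; five concentrations; linearly interpolated endpoints. GI50 is the concentration that inhibits growth by half. TGI: concentration producing complete growth inhibition.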
# How the values were obtained:
# Experiment in all cases: inhibition of tumour cell growth, NCI panel, 48 h
# OVCAR-4 ovarian = tested on: OVCAR-4 ovarian
# UACC-62 melanoma = tested on: UACC-62 melanoma
# HCT-116 colon = tested on: HCT-116 colon
# SK-MEL-28 melanoma = tested on: SK-MEL-28 melanoma
# UACC-257 melanoma = tested on: UACC-257 melanoma
# HCT-15 colon = tested on: HCT-15 colon
# SK-MEL-5 melanoma = tested on: SK-MEL-5 melanoma
# HL-60(TB) leukemia = tested on: HL-60(TB) leukemia
# COLO 205 colon = tested on: COLO 205 colon
# MDA-MB-435 = tested on: MDA-MB-435
# OVCAR-5 ovarian = tested on: OVCAR-5 ovarian
# ACHN renal = tested on: ACHN renal
# PC-3 prostate = tested on: PC-3 prostate
# SR leukemia = tested on: SR leukemia
# SF-268 CNS = tested on: SF-268 CNS
# MDA-MB-468 breast = tested on: MDA-MB-468 breast
# NCI-H23 lung = tested on: NCI-H23 lung
# OVCAR-8 ovarian = tested on: OVCAR-8 ovarian
# HT29 colon = tested on: HT29 colon
# A498 renal = tested on: A498 renal
# SN12C renal = tested on: SN12C renal
# NCI-H522 lung = tested on: NCI-H522 lung
# BT-549 breast = tested on: BT-549 breast
# SNB-75 CNS = tested on: SNB-75 CNS
# SK-OV-3 ovarian = tested on: SK-OV-3 ovarian
# M14 melanoma = tested on: M14 melanoma
# T-47D breast = tested on: T-47D breast
# RXF 393 renal = tested on: RXF 393 renal
# MALME-3M melanoma = tested on: MALME-3M melanoma
# K-562 leukemia = tested on: K-562 leukemia
# U251 CNS = tested on: U251 CNS
# HCC-2998 colon = tested on: HCC-2998 colon
# SK-MEL-2 melanoma = tested on: SK-MEL-2 melanoma
# LOX IMVI melanoma = tested on: LOX IMVI melanoma
# SF-539 CNS = tested on: SF-539 CNS
# NCI-H460 lung = tested on: NCI-H460 lung
# 786-0 renal = tested on: 786-0 renal
# CAKI-1 renal = tested on: CAKI-1 renal
# TK-10 renal = tested on: TK-10 renal
# SNB-19 CNS = tested on: SNB-19 CNS
# IGROV1 ovarian = tested on: IGROV1 ovarian
# NCI/ADR-RES ovarian = tested on: NCI/ADR-RES ovarian
# HOP-92 NSCLC = tested on: HOP-92 NSCLC
# UO-31 renal = tested on: UO-31 renal
# MCF7 breast = tested on: MCF7 breast
# OVCAR-3 ovarian = tested on: OVCAR-3 ovarian
# MOLT-4 leukemia = tested on: MOLT-4 leukemia
# NCI-H226 lung = tested on: NCI-H226 lung
# SF-295 CNS = tested on: SF-295 CNS
# CCRF-CEM leukemia = tested on: CCRF-CEM leukemia
# DU-145 prostate = tested on: DU-145 prostate
# KM12 colon = tested on: KM12 colon
# SW-620 colon = tested on: SW-620 colon
# HS 578T breast = tested on: HS 578T breast
# RPMI-8226 leukemia = tested on: RPMI-8226 leukemia
# HOP-62 NSCLC = tested on: HOP-62 NSCLC
# A549 NSCLC = tested on: A549 NSCLC
# MDA-MB-231 breast = tested on: MDA-MB-231 breast
# EKVX NSCLC = tested on: EKVX NSCLC
smiles,measurement,setting,value
O=C(NNC(=S)NC(=O)c1ccccc1)c1ccc(OCc2nc3ccc(Cl)cc3[nH]2)cc1,GI50,OVCAR-4 ovarian,2340 nM
same,TGI,OVCAR-4 ovarian,14.8 µM
same,GI50,UACC-62 melanoma,1670 nM
same,TGI,UACC-62 melanoma,3.11 µM
same,GI50,HCT-116 colon,1520 nM
same,TGI,HCT-116 colon,3.51 µM
same,GI50,SK-MEL-28 melanoma,1650 nM
same,TGI,SK-MEL-28 melanoma,3.23 µM
same,GI50,UACC-257 melanoma,2850 nM
same,TGI,UACC-257 melanoma,10.5 µM
same,GI50,HCT-15 colon,567 nM
same,TGI,HCT-15 colon,2130 nM
same,GI50,SK-MEL-5 melanoma,1780 nM
same,TGI,SK-MEL-5 melanoma,3.93 µM
same,GI50,HL-60(TB) leukemia,2220 nM
same,TGI,HL-60(TB) leukemia,7.24 µM
same,GI50,COLO 205 colon,2660 nM
same,TGI,COLO 205 colon,9.34 µM
same,GI50,MDA-MB-435,1810 nM
same,TGI,MDA-MB-435,4.37 µM
same,GI50,OVCAR-5 ovarian,1800 nM
same,TGI,OVCAR-5 ovarian,3.93 µM
same,GI50,ACHN renal,2040 nM
same,TGI,ACHN renal,5.82 µM
same,GI50,PC-3 prostate,1790 nM
same,TGI,PC-3 prostate,4.96 µM
same,GI50,SR leukemia,2520 nM
same,TGI,SR leukemia,11.7 µM
same,GI50,SF-268 CNS,2420 nM
same,TGI,SF-268 CNS,12 µM
same,GI50,MDA-MB-468 breast,2520 nM
same,TGI,MDA-MB-468 breast,9.45 µM
same,GI50,NCI-H23 lung,1780 nM
same,TGI,NCI-H23 lung,3.7 µM
same,GI50,OVCAR-8 ovarian,2100 nM
same,TGI,OVCAR-8 ovarian,5.07 µM
same,GI50,HT29 colon,3.45 µM
same,TGI,HT29 colon,13.7 µM
same,GI50,A498 renal,1600 nM
same,TGI,A498 renal,4.39 µM
same,GI50,SN12C renal,1570 nM
same,TGI,SN12C renal,3.16 µM
same,GI50,NCI-H522 lung,3.3 µM
same,TGI,NCI-H522 lung,13.4 µM
same,GI50,BT-549 breast,1540 nM
same,TGI,BT-549 breast,3.14 µM
same,GI50,SNB-75 CNS,1480 nM
same,TGI,SNB-75 CNS,4.78 µM
same,GI50,SK-OV-3 ovarian,2050 nM
same,TGI,SK-OV-3 ovarian,4.89 µM
same,GI50,M14 melanoma,1550 nM
same,TGI,M14 melanoma,3.79 µM
same,GI50,T-47D breast,3.12 µM
same,TGI,T-47D breast,18.6 µM
same,GI50,RXF 393 renal,2320 nM
same,TGI,RXF 393 renal,6.67 µM
same,GI50,MALME-3M melanoma,1530 nM
same,TGI,MALME-3M melanoma,3.08 µM
same,GI50,K-562 leukemia,2790 nM
same,TGI,K-562 leukemia,> 100 µM
same,GI50,U251 CNS,1710 nM
same,TGI,U251 CNS,3.46 µM
same,GI50,HCC-2998 colon,1680 nM
same,TGI,HCC-2998 colon,3.35 µM
same,GI50,SK-MEL-2 melanoma,2080 nM
same,TGI,SK-MEL-2 melanoma,4.95 µM
same,GI50,LOX IMVI melanoma,1260 nM
same,TGI,LOX IMVI melanoma,2640 nM
same,GI50,SF-539 CNS,1760 nM
same,TGI,SF-539 CNS,3.23 µM
same,GI50,NCI-H460 lung,1260 nM
same,TGI,NCI-H460 lung,3.6 µM
same,GI50,786-0 renal,2050 nM
same,TGI,786-0 renal,6.12 µM
same,GI50,CAKI-1 renal,2480 nM
same,TGI,CAKI-1 renal,9.45 µM
same,GI50,TK-10 renal,4.49 µM
same,TGI,TK-10 renal,21.2 µM
same,GI50,SNB-19 CNS,2100 nM
same,TGI,SNB-19 CNS,6.68 µM
same,GI50,IGROV1 ovarian,2180 nM
same,TGI,IGROV1 ovarian,5.33 µM
same,GI50,NCI/ADR-RES ovarian,396 nM
same,TGI,NCI/ADR-RES ovarian,2550 nM
same,GI50,HOP-92 NSCLC,2180 nM
same,TGI,HOP-92 NSCLC,6.26 µM
same,GI50,UO-31 renal,1390 nM
same,TGI,UO-31 renal,4.11 µM
same,GI50,MCF7 breast,2910 nM
same,TGI,MCF7 breast,17.7 µM
same,GI50,OVCAR-3 ovarian,1850 nM
same,TGI,OVCAR-3 ovarian,4.55 µM
same,GI50,MOLT-4 leukemia,2220 nM
same,TGI,MOLT-4 leukemia,10.2 µM
same,GI50,NCI-H226 lung,2020 nM
same,TGI,NCI-H226 lung,7.82 µM
same,GI50,SF-295 CNS,1270 nM
same,TGI,SF-295 CNS,2980 nM
same,GI50,CCRF-CEM leukemia,1440 nM
same,TGI,CCRF-CEM leukemia,10.5 µM
same,GI50,DU-145 prostate,3.02 µM
same,TGI,DU-145 prostate,15.3 µM
same,GI50,KM12 colon,1890 nM
same,TGI,KM12 colon,4.11 µM
same,GI50,SW-620 colon,1990 nM
same,TGI,SW-620 colon,4.55 µM
same,GI50,HS 578T breast,2170 nM
same,TGI,HS 578T breast,7.3 µM
same,GI50,RPMI-8226 leukemia,2830 nM
same,TGI,RPMI-8226 leukemia,21.6 µM
same,GI50,HOP-62 NSCLC,1760 nM
same,TGI,HOP-62 NSCLC,3.56 µM
same,GI50,A549 NSCLC,1990 nM
same,TGI,A549 NSCLC,4.49 µM
same,GI50,MDA-MB-231 breast,1710 nM
same,TGI,MDA-MB-231 breast,3.37 µM
same,GI50,EKVX NSCLC,2120 nM
same,TGI,EKVX NSCLC,5.75 µM
